Test results from patent US11718614B2, “Compounds and methods for treatment of hedgehog pathway associated conditions” (Suzhou Mednes Pharma Tech Co., Ltd., priority 2018, dated 2023).

Test system: tumor cells from medulloblastoma developed from mice with deficiency in Patched1 gene
Test: MB assay: survival of medulloblastoma tumor cells by MTT after 48 hours
Assay type: cell-based
Settings: Mus musculus, tumor cells treated 48 hours, cell survival by MTT
Protocol: To test the effect of the novel compounds on the proliferation of tumor cell, we isolated tumor cells from medulloblastoma developed from mice with deficiency in Patched1 gene. Tumor cells were plated in vitro as previously described, and treated with various concentration of compounds for 48 hours. Tumor cells cultured were then harvested to measure cell survival based on MTT assay. The IC50 value for each compound was calculated using Prism the statistical software.
Table 1 below summarizes the IC50 data obtained using MB assay for exemplary compounds of the invention. IC50 values are shown as A, B, C, or D. A represents IC50 value between 1.0 μM and 5.0 μM; B is between 5.0 μM and 10 μM; C is between 10 μM to 20 μM; and D indicates greater than 20 μM.

Question: How did the IC50 turn out when `COC(=O)c1ccc(C(C)c2nc3cc(OC)ccc3n2Cc2ccccc2Cl)cc1` (stereo not shown) [Compound 42] was run?
Answer: > 20 µM
